Reference: patent publication US4746659A, “Diastereomers of 10-alkyl-10-deazaminopterins and process for preparing the same” (priority 1985, dated 1988)
In brackets after ≈: the same amount, converted by molar mass. Entries after “also recorded” stand apart in the source; their conditions may differ. Where two headings read alike, the source gives them in different places.

Key:
[1] = tested on: leukemia, as well as other malignancies, including ascitic tumors; conditions: warm-blooded lower animals; cited from earlier work
[2] = tested on: L1210 cells; test: Growth inhibition of L1210 cells; type: cell-based; conditions: for IC50: average of 3-6 runs, standard error less than 15%, read-out: growth inhibn (minimum inhibitory concentration50); for inhibition of growth for L1210 cells, comparison between isomers: comparison in words
[3] = molecular target: T1, transport protein of L1210 (Mus musculus, UniProt P41438); test: Transport (influx, efflux) in L1210 cells; type: cell-based; conditions: average of 3-6 runs, standard error less than 15%
T1 sequence (P41438 1-512): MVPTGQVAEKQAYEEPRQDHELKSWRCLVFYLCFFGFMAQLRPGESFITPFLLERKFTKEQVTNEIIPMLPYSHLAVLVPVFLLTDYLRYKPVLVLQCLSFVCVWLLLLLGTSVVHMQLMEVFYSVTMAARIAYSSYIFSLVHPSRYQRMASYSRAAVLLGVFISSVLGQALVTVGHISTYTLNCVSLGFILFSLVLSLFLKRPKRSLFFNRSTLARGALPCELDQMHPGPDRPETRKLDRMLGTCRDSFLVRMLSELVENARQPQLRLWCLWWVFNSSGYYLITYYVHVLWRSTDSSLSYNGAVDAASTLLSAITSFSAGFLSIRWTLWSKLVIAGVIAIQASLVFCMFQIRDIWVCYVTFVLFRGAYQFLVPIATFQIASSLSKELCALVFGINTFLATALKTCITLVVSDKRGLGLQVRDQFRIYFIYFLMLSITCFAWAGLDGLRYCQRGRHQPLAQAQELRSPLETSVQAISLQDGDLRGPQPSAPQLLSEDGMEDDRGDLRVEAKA

[4] = molecular target: T2, dihydrofolate reductase derived from L1210 (Mus musculus, UniProt P00375); test: Inhibition of dihydrofolate reductase derived from L1210 cells; type: biochemical; conditions: comparison in words
T2 construct: dihydrofolate reductase derived from L1210; endogenous in cells; host or cells: L1210 cells
T2 sequence (P00375 1-187): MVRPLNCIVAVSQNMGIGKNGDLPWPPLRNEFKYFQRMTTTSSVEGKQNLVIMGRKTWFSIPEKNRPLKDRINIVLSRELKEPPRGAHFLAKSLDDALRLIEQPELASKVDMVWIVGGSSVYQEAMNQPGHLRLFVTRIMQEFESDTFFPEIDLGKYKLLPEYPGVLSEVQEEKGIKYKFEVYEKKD

[5] = tested on: Streptococcus faecium; test: Growth inhibition of Streptococcus faecium (ATCC 8043); type: cell-based; conditions: for IC50: Enterococcus faecium, ATCC8043, read-out: Minimum Inhibitory Concentration50 for growth inhibition, S. faecium, S. faecium ATCC 8043; for IC50 / Minimum Inhibitory Concentration50 for growth inhibition, S. faecium: folate concentration = 1 ng/mL; for potency against S. faecium, comparison: comparison in words; for Minimum Inhibitory Concentration50 for growth inhibition, S. faecium: S. faecium ATCC 8043
[6] = molecular target: dihydrofolate reductase derived from L. casei (Lacticaseibacillus casei, UniProt P00381); test: DHFR inhibition, enzyme derived from L. casei; type: biochemical; conditions: relative to l,L-isomer
[7] = tested on: L1210 leukemia; test: Antitumor activity against L1210 leukemia in mice; type: in vivo, BD (2) F1 female mice; conditions: sc every 2 days times 5; for Mean Survival Time: untreated control 6.6 days
[8] = tested on: Streptococcus faecium; conditions: cited from earlier work
[9] = tested on: human mammary, lung and colon tumor xenografts; conditions: lung and colon tumor xenografts in nude mice; cited from earlier work
[10] = tested on: experimental murine tumor models; conditions: compared with methotrexate or 10-deazaminopterin; cited from earlier work
[11] = Various in vitro assays (general statement); conditions: Tables I, II and III
[12] = Mus musculus, L1210, L1210 cells
[13] = 9 mg/kg, listed as racemic mixture
[14] = 12 mg/kg, listed as racemic mixture
[15] = 18 mg/kg, listed as racemic mixture
[16] = 24 mg/kg, listed as racemic mixture

Chain of dihydrofolate reductase derived from L. casei (P00381 whole entry): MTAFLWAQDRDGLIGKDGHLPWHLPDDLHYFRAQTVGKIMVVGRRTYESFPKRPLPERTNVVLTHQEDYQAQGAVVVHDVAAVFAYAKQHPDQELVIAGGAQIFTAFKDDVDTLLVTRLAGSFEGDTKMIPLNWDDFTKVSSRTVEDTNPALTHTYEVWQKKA

SMILES: Nc1nc(N)c2nc(CCc3ccc(C(=O)NC(CCC(=O)O)C(=O)O)cc3)cnc2n1 (stereo not drawn) [10-deazaminopterin]
- amelioration of leukemia and other malignancies, including ascitic tumors [1]: can be ameliorated

SMILES: CC(Cc1cnc2nc(N)nc(N)c2n1)c1ccc(C(=O)N[C@@H](CCC(=O)O)C(=O)O)cc1 (single isomer, unassigned) [l, L-10-methyl, 10-methyl-10-deazaminopterin]
- IC50 [2, 12]: 1.18 nM
- inhibition of growth for L1210 cells, comparison between isomers [2]: not a significant difference
- transport efflux k [3]: 0.267 min⁻¹
- inhibition of dihydrofolate reductase derived from L1210, comparison between isomers [4]: not significantly different from one another or MTX

SMILES: CCC(CC1=Nc2c(N)nc(N)nc2NC1)c1ccc(C(=O)N[C@@H](CCC(=O)O)C(=O)O)cc1 (stereo partly drawn) [7,8-dihydro l, L]
- IC50 [5]: 1.1 ng/mL (≈ 2.34 nM)

SMILES: CCC(Cc1cnc2nc(N)nc(N)c2n1)c1ccc(C(=O)N[C@@H](CCC(=O)O)C(=O)O)cc1 (stereo partly drawn) [d, L-10-ethyl, d,L-10-ethyl-10-deazaminopterin]
- IC50 [2, 12]: 0.43 nM
- inhibition of growth for L1210 cells, comparison between isomers [2]: significantly more effective
- transport efflux k [3]: 0.253 min⁻¹
- inhibition of dihydrofolate reductase derived from L1210, comparison between isomers ([4]; listed as d,L isomer of 10-ethyl-10-deazaminopterin): significantly more effective; also recorded: three-fold difference between l,L and d,L isomers
- potency against the L. casei enzyme, d,L-isomer over l,L-isomer [6]: approximately three-fold greater potency
- 30-day survivors ([7]; 9 mg/kg, listed as d, L): 0/6
- Increased Life Span ([7]; 9 mg/kg, listed as d, L): +177%
- Toxic deaths ([7]; 9 mg/kg, listed as d, L): 0/6
- Mean Survival Time ([7]; 9 mg/kg, listed as d, L): 18.3 ± 1.7 days
- 30-day survivors ([7]; 12 mg/kg, listed as d, L): 0/9
- Increased Life Span ([7]; 12 mg/kg, listed as d, L): +199%
- Toxic deaths ([7]; 12 mg/kg, listed as d, L): 3/9
- Mean Survival Time ([7]; 12 mg/kg, listed as d, L): 19.8 ± 2.3 days
- 30-day survivors ([7]; 18 mg/kg, listed as d, L): 1/9
- Increased Life Span ([7]; 18 mg/kg, listed as d, L): > +165%
- Toxic deaths ([7]; 18 mg/kg, listed as d, L): 5/9
- Mean Survival Time ([7]; 18 mg/kg, listed as d, L): 17.5 ± 1.5 days
- 30-day survivors ([7]; 24 mg/kg, listed as d, L): 0/3
- Increased Life Span ([7]; 24 mg/kg, listed as d, L): +55%
- Toxic deaths ([7]; 24 mg/kg, listed as d, L): 3/3
- Mean Survival Time ([7]; 24 mg/kg, listed as d, L): 10.0 ± 0 days

SMILES: CCC(Cc1cnc2nc(N)nc(N)c2n1)c1ccc(C(=O)N[C@@H](CCC(=O)O)C(=O)O)cc1 (single isomer, unassigned) [l, L-10-ethyl, l,L-10-ethyl-10-deazaminopterin]
- IC50 [2, 12]: 1.52 nM
- inhibition of growth for L1210 cells, comparison between isomers [2]: only one-third as potent as the d,L isomer
- transport efflux k [3]: 0.249 min⁻¹
- potency against S. faecium, comparison [5]: slightly more potent than the d,L-isomer

SMILES: CC(Cc1cnc2nc(N)nc(N)c2n1)c1ccc(C(=O)N[C@@H](CCC(=O)O)C(=O)O)cc1 (single isomer, unassigned) [d, L-10-methyl, 10-methyl-10-deazaminopterin]
- IC50 ([2]; L1210 cells): 0.68 nM
- inhibition of growth for L1210 cells, comparison between isomers [2]: not a significant difference
- transport efflux k [3]: 0.258 min⁻¹
- inhibition of dihydrofolate reductase derived from L1210, comparison between isomers [4]: not significantly different from one another or MTX

SMILES: Nc1nc2ncc(CCc3ccc(C(=O)O)cc3)nc2c(=O)[nH]1 [10-deazapteroic acid]
- growth-inhibitory activity against Streptococcus faecium [8]: potent growth-inhibitory activity

SMILES: CCC(CC1CNc2nc(N)nc(N)c2N1)c1ccc(C(=O)N[C@@H](CCC(=O)O)C(=O)O)cc1 (mixture of isomers) [5,6,7,8-tetrahydro racemic mixture]
- Minimum Inhibitory Concentration50 for growth inhibition, S. faecium [5]: 2.6 ng/mL

SMILES: CCC(CC1CNc2nc(N)nc(N)c2N1)c1ccc(C(=O)N[C@@H](CCC(=O)O)C(=O)O)cc1 (stereo partly drawn) [5,6,7,8-tetrahydro l, L]
- IC50 [5]: 3.1 ng/mL (≈ 6.57 nM)

SMILES: CCC(Cc1cnc2nc(N)nc(N)c2n1)c1ccc(C(=O)N[C@@H](CCC(=O)O)C(=O)O)cc1 (stereo partly drawn) [10-ethyl-10-deazaminopterin]
- regression of human tumor xenografts [9]: frank regressions
- effectiveness in experimental murine tumor models [10]: considerably more effective than methotrexate or 10-deazaminopterin
- 30-day survivors [7, 13]: 0/10
- Increased Life Span [7, 13]: +135%
- Toxic deaths [7, 13]: 0/10
- Mean Survival Time [7, 13]: 15.5 ± 0.6 days
- 30-day survivors [7, 14]: 0/10
- Increased Life Span [7, 14]: +153%
- Toxic deaths [7, 14]: 0/10
- Mean Survival Time [7, 14]: 16.7 ± 0.7 days
- 30-day survivors [7, 15]: 0/10
- Increased Life Span [7, 15]: +193%
- Toxic deaths [7, 15]: 0/10
- Mean Survival Time [7, 15]: 19.3 ± 0.8 days
- 30-day survivors [7, 16]: 2/10
- Increased Life Span [7, 16]: > +207%
- Toxic deaths [7, 16]: 2/10
- Mean Survival Time [7, 16]: 20.3 ± 1.9 days
- 30-day survivors ([7]; 32 mg/kg): 0/10
- Increased Life Span ([7]; 32 mg/kg): +67%
- Toxic deaths ([7]; 32 mg/kg): 10/10
- Mean Survival Time ([7]; 32 mg/kg): 16.0 ± 1.1 days
- inhibitory activity in the various in vitro assays, comparison [11]: intermediate between the values for the resolved d,L and l,L diasteromers

SMILES: Nc1nc2c(c(=O)[nH]1)NC(CCc1ccc(C(=O)O)cc1)CN2 (stereo not drawn)
- growth-inhibitory activity against Streptococcus faecium [8]: Activity was greatly enhanced by reduction to the tetrahydro compound

SMILES: CN(Cc1cnc2nc(N)nc(N)c2n1)c1ccc(C(=O)N[C@@H](CCC(=O)O)C(=O)O)cc1 [methotrexate, reference compound]
- IC50 ([2]; L1210 cells): 2.48 nM
- transport efflux k [3]: 0.213 min⁻¹
- 30-day survivors ([7]; 9 mg/kg): 0/10
- Increased Life Span ([7]; 9 mg/kg): +137%
- Toxic deaths ([7]; 9 mg/kg): 0/10
- Mean Survival Time ([7]; 9 mg/kg): 15.7 ± 0.4 days
- 30-day survivors ([7]; 12 mg/kg): 0/10
- Toxic deaths ([7]; 12 mg/kg): 1/10
- Mean Survival Time ([7]; 12 mg/kg): 16.3 ± 0.7 days
- 30-day survivors ([7]; 18 mg/kg): 0/10
- Increased Life Span ([7]; 18 mg/kg): +119%
- Toxic deaths ([7]; 18 mg/kg): 6/10
- Mean Survival Time ([7]; 18 mg/kg): 14.5 ± 1.6 days
- 30-day survivors ([7]; 24 mg/kg): 0/10
- Increased Life Span ([7]; 24 mg/kg): +46%
- Toxic deaths ([7]; 24 mg/kg): 10/10
- Mean Survival Time ([7]; 24 mg/kg): 9.6 ± 1.1 days

SMILES: CCC(CC1CNc2nc(N)nc(N)c2N1)c1ccc(C(=O)N[C@@H](CCC(=O)O)C(=O)O)cc1 (stereo partly drawn) [5,6,7,8-tetrahydro d, L]
- Minimum Inhibitory Concentration50 for growth inhibition, S. faecium [5]: 2.5 ng/mL
- potency against S. faecium, comparison [5]: slightly more potent than the l,L isomer
